# Reference: patent US9951068B2 (Proximagen Limited, priority 2013, dated 2018)
# Assays:
# [1] = target: purified recombinantly expressed human SSAO (Homo sapiens (Human), UniProt Q16853); assay: SSAO enzyme inhibition assay (HRP-coupled hydrogen peroxide detection or 14C-benzaldehyde detection, benzylamine substrate); type: biochemical; conditions: SSAO inhibitory activity, human recombinant SSAO, RT
# Procedure, shortened: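 Human recombinant SSAO pre-incubated ~15 min with compound, room temperature. Radiometric format: 10 ug/ml enzyme, 40 uM 14C-benzylamine, 1 h, in PBS. IC50 by four-parameter fit.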
# [2] = target: human ether a go-go related gene (hERG) K+ channel (Homo sapiens (Human), UniProt Q12809); assay: hERG assay, IonWorks patch clamp electrophysiology; type: cell-based; conditions: Chinese Hamster Lung cell line stably expressing hERG; max assay concentration 11 uM
# Protocol: Compounds of the invention were tested for inhibition of the human ether a go-go related gene (hERG) K^+ channel using IonWorks patch clamp electrophysiology. 8 Point concentration-response curves were generated on two occasions using 3-fold serial dilutions from the maximum assay concentration (11 uM). Electrophysiological recordings were made from a Chinese Hamster Lung cell line stably expressing the full length hERG channel. Single cell ion currents were measured in the perforated patch clamp configuration (100 ug/mL amphoterocin) at room temperature using an IonWorks Quattro instrument. The internal solution contained 140 mM KCl, 1 mM MgCl2, 1 mM EGTA and 20 mM HEPES and was buffered to pH 7.3. The external solution contained 138 mM NaCl, 2.7 mM KCl, 0.9 mM CaCl2, 0.5 mM MgCl2, 8 mM Na2HPO4 and 1.5 mM KH2PO4, and was buffered to pH 7.3. […] This sequence was repeated 5 times at a frequency of 0.25 Hz. Currents were measured from the tail step at the 5th pulse, and referenced to the holding current. Compounds were incubated for 6-7 min prior to a second measurement of the hERG signal using an identical pulse train. […] A control compound (quinidine) was used (see Table 20 below).
# Sequence of purified recombinantly expressed human SSAO (Q16853 29-763): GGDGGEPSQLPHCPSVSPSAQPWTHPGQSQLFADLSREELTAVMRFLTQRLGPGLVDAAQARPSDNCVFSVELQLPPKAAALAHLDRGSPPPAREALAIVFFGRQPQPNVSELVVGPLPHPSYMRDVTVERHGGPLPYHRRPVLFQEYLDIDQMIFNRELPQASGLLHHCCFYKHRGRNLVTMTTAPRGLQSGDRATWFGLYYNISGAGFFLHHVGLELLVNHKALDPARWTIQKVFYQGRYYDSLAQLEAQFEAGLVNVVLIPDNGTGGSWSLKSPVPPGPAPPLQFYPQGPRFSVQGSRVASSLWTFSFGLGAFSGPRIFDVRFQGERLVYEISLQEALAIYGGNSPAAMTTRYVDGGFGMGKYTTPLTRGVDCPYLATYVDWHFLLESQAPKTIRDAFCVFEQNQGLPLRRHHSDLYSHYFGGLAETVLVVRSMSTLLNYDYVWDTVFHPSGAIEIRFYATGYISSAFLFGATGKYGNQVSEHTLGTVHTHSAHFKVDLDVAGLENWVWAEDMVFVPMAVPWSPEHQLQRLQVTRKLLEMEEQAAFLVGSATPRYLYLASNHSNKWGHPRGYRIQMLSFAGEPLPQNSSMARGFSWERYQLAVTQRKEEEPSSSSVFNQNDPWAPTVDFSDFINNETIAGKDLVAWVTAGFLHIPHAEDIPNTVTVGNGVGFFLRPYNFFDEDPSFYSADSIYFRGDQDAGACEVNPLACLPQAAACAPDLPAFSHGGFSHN
# Sequence of human ether a go-go related gene (hERG) K+ channel (Q12809 whole entry): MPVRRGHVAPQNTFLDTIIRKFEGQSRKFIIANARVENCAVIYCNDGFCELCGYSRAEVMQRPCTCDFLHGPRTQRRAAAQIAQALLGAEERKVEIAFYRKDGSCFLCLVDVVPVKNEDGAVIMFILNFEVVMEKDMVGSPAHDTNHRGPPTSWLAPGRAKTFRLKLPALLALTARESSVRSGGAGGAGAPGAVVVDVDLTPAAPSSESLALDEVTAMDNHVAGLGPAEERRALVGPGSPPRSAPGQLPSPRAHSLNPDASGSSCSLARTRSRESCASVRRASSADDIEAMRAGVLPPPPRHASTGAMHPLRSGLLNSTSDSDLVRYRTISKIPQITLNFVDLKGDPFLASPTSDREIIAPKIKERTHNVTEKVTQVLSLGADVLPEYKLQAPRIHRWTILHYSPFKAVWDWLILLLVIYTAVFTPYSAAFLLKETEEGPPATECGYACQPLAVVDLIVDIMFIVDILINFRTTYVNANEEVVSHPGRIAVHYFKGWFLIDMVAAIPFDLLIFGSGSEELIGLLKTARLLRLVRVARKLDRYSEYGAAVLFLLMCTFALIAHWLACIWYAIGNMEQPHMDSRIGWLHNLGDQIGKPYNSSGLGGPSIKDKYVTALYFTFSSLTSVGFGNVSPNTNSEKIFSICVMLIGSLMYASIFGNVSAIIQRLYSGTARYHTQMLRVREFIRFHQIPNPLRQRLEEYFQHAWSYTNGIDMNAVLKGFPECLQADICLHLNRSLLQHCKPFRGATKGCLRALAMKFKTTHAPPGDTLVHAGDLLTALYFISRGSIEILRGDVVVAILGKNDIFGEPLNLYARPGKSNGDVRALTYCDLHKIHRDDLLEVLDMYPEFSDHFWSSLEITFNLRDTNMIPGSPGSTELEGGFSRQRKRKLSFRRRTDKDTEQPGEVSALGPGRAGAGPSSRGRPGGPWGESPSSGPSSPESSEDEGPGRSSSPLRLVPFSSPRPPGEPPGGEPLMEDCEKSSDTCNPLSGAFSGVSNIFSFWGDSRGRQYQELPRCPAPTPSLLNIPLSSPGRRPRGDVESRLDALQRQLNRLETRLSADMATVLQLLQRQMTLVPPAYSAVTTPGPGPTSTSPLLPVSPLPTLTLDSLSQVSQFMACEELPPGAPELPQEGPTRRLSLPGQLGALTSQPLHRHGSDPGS
IC50 [1],Structure (SMILES),IC50 [2]
< 0.05 µM,"CN1CCN(Cc2ccc(-c3nc4ccncc4n3-c3ccc(Cl)cc3)cc2)CC1 [Example 46, 1-({4-[3-(4-Chlorophenyl)-3H-imidazo[4,5-c]pyridin-2-yl]phenyl}methyl)-4-methylpiperazine; formic acid]",> 10 µM
< 0.05 µM,"Clc1ccc(-n2c(-c3ccc(N4CCNCC4)nc3)nc3ccncc32)cc1 [Example 50, 1-{5-[3-(4-Chlorophenyl)-3H-imidazo[4,5-c]pyridin-2-yl]pyridin-2-yl}piperazine]",> 10 µM
< 0.05 µM,"Fc1ccc(-n2c(-c3cnc(N4CCOCC4)nc3)nc3ccncc32)cc1 [Example 52, 4-{5-[3-(4-Fluorophenyl)-3H-imidazo[4,5-c]pyridin-2-yl]pyrimidin-2-yl}morpholine]",> 10 µM
< 0.05 µM,"Fc1ccc(-n2c(-c3cnc(N4CCCC4)nc3)nc3ccncc32)cc1 [Example 69, 5-[3-(4-Fluorophenyl)-3H-imidazo[4,5-c]pyridin-2-yl]-2-(pyrrolidin-1-yl)pyrimidine]",> 10 µM
< 0.05 µM,"CC1CN(c2ccc(-c3nc4ccncc4n3-c3ccc(F)cc3)cn2)CCO1 (stereo not drawn) [Example 70, 4-{5-[3-(4-Fluorophenyl)-3H-imidazo[4,5-c]pyridin-2-yl]pyridin-2-yl}-2-methylmorpholine]",> 10 µM
< 0.05 µM,"Clc1ccc(-n2c(-c3cnc(N4CCOCC4)nc3)nc3ccncc32)nc1 [Example 75, 4-{5-[3-(5-Chloropyridin-2-yl)-3H-imidazo[4,5-c]pyridin-2-yl]pyrimidin-2-yl}morpholine; tris(trifluoroacetic acid)]",> 10 µM
< 0.05 µM,"Fc1ccc(-n2c(-c3cnc(N4CCOCC4)nc3)nc3ccncc32)c(F)c1 [Example 78, 4-{5-[3-(2,4-Difluorophenyl)-3H-imidazo[4,5-c]pyridin-2-yl]pyrimidin-2-yl}morpholine]",> 10 µM
< 0.05 µM,"Clc1ccc(-n2c(-c3ccc(N4CCOCC4)nc3)nc3ccncc32)nc1 [Example 81, 4-{5-[3-(5-Chloropyridin-2-yl)-3H-imidazo[4,5-c]pyridin-2-yl]pyridin-2-yl}morpholine]",> 10 µM
< 0.05 µM,"Cc1ccc(-n2c(-c3ccc(N4CCOCC4)nc3)nc3ccncc32)nc1 [Example 82, 4-{5-[3-(5-Methylpyridin-2-yl)-3H-imidazo[4,5-c]pyridin-2-yl]pyridin-2-yl}morpholine]",> 10 µM
< 0.05 µM,"CC(=O)NC1CCN(c2ccc(-c3nc4ccncc4n3-c3ccc(Cl)cc3)cn2)CC1 [Example 85, N-(1-{5-[3-(4-Chlorophenyl)-3H-imidazo[4,5-c]pyridin-2-yl]pyridin-2-yl}piperidin-4-yl)acetamide]",> 10 µM
< 0.05 µM,"CC(=O)N1CCN(c2ccc(-c3nc4ccncc4n3-c3ccc(F)cc3)cn2)CC1 [Example 86, 1-(4-{5-[3-(4-Fluorophenyl)-3H-imidazo[4,5-c]pyridin-2-yl]pyridin-2-yl}piperazin-1-yl)ethan-1-one]",> 10 µM
< 0.05 µM,"CS(=O)(=O)N1CCN(c2ccc(-c3nc4ccncc4n3-c3ccc(F)cc3)cn2)CC1 [Example 89, 1-{5-[3-(4-Fluorophenyl)-3H-imidazo[4,5-c]pyridin-2-yl]pyridin-2-yl}-4-methanesulfonylpiperazine]",> 10 µM
< 0.05 µM,"NC(=O)N1CCN(c2ccc(-c3nc4ccncc4n3-c3ccc(F)cc3)cn2)CC1 [Example 92, 4-{5-[3-(4-Fluorophenyl)-3H-imidazo[4,5-c]pyridin-2-yl]pyridin-2-yl}piperazine-1-carboxamide]",> 10 µM
< 0.05 µM,"O=C1CN(c2ncc(-c3cc4ccncc4n3-c3ccc(Cl)cc3)cn2)CCN1 [Example 128, 4-{5-[1-(4-Chlorophenyl)-1H-pyrrolo[2,3-c]pyridin-2-yl]pyrimidin-2-yl}piperazin-2-one]",> 10 µM
< 0.05 µM,"Cn1cncc1-c1cc2ccncc2n1-c1ccc(Cl)cc1 [Example 136, 5-[1-(4-Chlorophenyl)-1H-pyrrolo[2,3-c]pyridin-2-yl]-1-methyl-1H-im idazole]",1 to 10 µM
